# Measured values as given in US20140322161A1, “ANTI-IL-6 VACCINE COMPOSITION” (PEPTINOV SAS, priority 2011, published 2014).
# Bridges are numbered along the chain shown (N, C = ends). BDB = bisdiazonium-benzidine, coupling agent to KLH
# Assays:
# mIL-6 = molecular target: T1, mIL-6 (Mus musculus, UniProt P08505); test: ELISA of antibody production against mIL-6 in DBA/2 mice immunized with mP2; type: in vivo; conditions: 100 μg cyclized mP2 coupled to KLH, day 54 sera, FIG. 9
# T1 sequence (P08505 25-211): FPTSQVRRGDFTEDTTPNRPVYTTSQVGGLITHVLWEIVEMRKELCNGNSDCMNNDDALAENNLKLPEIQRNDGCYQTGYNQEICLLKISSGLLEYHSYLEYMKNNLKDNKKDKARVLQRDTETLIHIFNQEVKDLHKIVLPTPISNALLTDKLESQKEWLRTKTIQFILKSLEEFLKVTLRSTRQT
# Experimental: (§1) Briefly, three groups of DBA/2 mice (Janvier, France) immunized intramuscularly four times (once in complete Freund's adjuvant (CFA), and three times in incomplete Freund's adjuvant (IFA)) every 15 days with different vaccine preparations: • 8 mice were immunized with 100 μg of the above-described cyclized mP2 peptide coupled to KLH (mP2-Bleo group) and were injected subcutaneously in the back with bleomycin • 6 mice were immunized with 100 μg of mP2 (mP2-Nacl group) and were injected subcutaneously in the back with NaCl (Negative control group) • 8 mice were group immunized with 200 μg of KLH alone (KLH-Bleo group) and were injected subcutaneously in the back with bleomycin. (Positive control group)
# (§2) At day 54, the mice were killed. Sera samples were collected and the antibody production against mIL-6 was quantified by ELISA. Furthermore, skin biopsies were performed to evaluate the OH-proline production, indicative of collagen production, and histological sections from the back were also performed to evaluate dermal thickness.
# DBA/2 mice = test: Murine model of bleomycin-induced systemic sclerosis after vaccination; type: in vivo; conditions: for skin fibrosis (OH-proline content of skin biopsies): mP2-immunized, FIG. 10
# Excerpt: The murine model of bleomycin-induced systemic sclerosis is a well-known model of chronic inflammatory disease with main features being dermal thickness together with skin and pulmonary fibrosis due to excessive collagen production (Adamson & Bowden (1974) Am. J. Pathol. 77:185-197)
# as §1
# The inventors also used an additional control group composed of mice injected intraperitoneally with 100 μL (1 mg/mouse) of murine monoclonal anti IL-6 receptor antibody once a week (n=6).
# The subcutaneous injections of 100 μL of bleomycin (0.5 mg/mL) were performed three days after the third boost and then every other day during three weeks in order to induce systemic sclerosis.
# as §2
# The collagen content was measured in the skin biopsy from each mouse by assaying hydroxyproline (OH-proline) content. OH-proline represents about 13% of collagen amino acids and is measured to evaluate collagen production. […] The absorbance is read at 560 nm.
# Dermal thickness from histological sections was then measured in a blind way by two independent experts.
# hIL-6 = hIL-6 (Homo sapiens, UniProt P05231); test: ELISA cross-reactivity of sera from OF1 mice immunized with mIL-6-derived peptides, plates covered with human IL-6; type: in vivo; conditions: D54 sera diluted 1/500, plates covered with human IL-6
# Excerpt: Six peptides derived from murine IL-6 were chemically synthesized and coupled to a carrier protein, KLH (Keyhole Limpet Hemocyanin), five using the coupling agent bisdiazonium-benzidine (BDB) and one with glutaraldehyde. These peptides were then cyclized by the formation of disulfide bonds between cysteines (added or already present).
# For each peptide, Oncins France 1 mice (OF1, Charles River Laboratories, L'Arbresle, France) free from specific pathogenic organisms were immunized by intra-muscular route with 100 μg of peptides derived from murine IL-6 mP1, mP2, mP3, mP4, mP5, and mP6 (see Table 1) in complete Freund's adjuvant (CFA) at the start of the experiment (D0) (n=4 per peptide).
# Incomplete Freund's adjuvant (IFA) boosters are then given every 15 days, on D15, D30 and D45. The sera from mice on D54 are tested by ELISA with a 1/500th dilution of the serums on plates covered with murine IL-6 or human IL-6 in order to evaluate their cross-reactivity.
# C57BL/6 mice = test: Murine model of chronic colitis induced by DSS after vaccination; type: in vivo
# Excerpt: Chronic colitis induced by Dextran Sodium Sulfate (DSS) is a well-known model of chronic inflammatory disease reproducing the main characteristics of the human diseases (Alex et al. (2009) Inflamm. Bowel Dis. 15:341-352).
# Briefly, groups of 6 C57BL/6 mice (Charles River Laboratories, L'Arbresle, France) were formed. The mice were immunized 4 times (once with CFA and three times with IFA) every 15 days with different vaccine preparations. The mice were respectively immunized with PBS (DSS/PBS group), 50 μg per mouse of KLH (DSS/KLH group), and 100 μg per mouse of peptide mP1, mP2, mP3, mP4, mP5 and mP6 coupled with KLH (DSS/mIL-6 peptide group). A control H2O group was also included. Four days after the first booster, colitis was induced by absorption of Dextran Sodium Sulfate (DSS) in water (2%) over 7 days followed by 7 days of water. Three DSS/water cycles were thus carried out, after which the mice received water until the end of the protocol. The clinical signs of the disease appear approximately on the fifth day after the start of treatment with DSS (D26 of the protocol). The development of the disease is measured from the start of the first DSS cycle up to the end of the protocol by a disease activity index (DAI) including weight loss, the presence of blood in the stools and the texture of the stools. The clinical scores are determined as follows: for the texture of the stools a score of 0 (hard stools) to 4 (diarrhoea), for the presence of blood in the stools a score of 0 (absence) to 4 (macroscopic blood), and weight loss a score of 0 (<1%) to 4 (>20%). Each mouse is thus assigned a clinical score with a maximum score of 12.
# Then, on D67, the mice are killed by cervical dislocation. The histological sections from colon distal biopsies are scored blind, according to the severity of the inflammation (0: absence, 1: slight, 2: moderate, 3: severe), the extent of the inflammation (0: absence, 1: mucosal, 2: mucosal and sub-mucosal, 3: transmural), crypt damage (0: absence, 1: one-third damaged, 2: ⅔ damaged, 3: only the surface of the epithelium intact, 4: total destruction of the crypts and epithelium). Each mouse is thus assigned a histological score with a maximum score of 10.
# murine IL-6 = molecular target: T2, murine IL-6 (Mus musculus, UniProt P08505); test: Murine IL-6 neutralization test on murine B9 hybridomas with purified IgGs from immunized rabbits; type: cell-based; conditions: purified IgGs from rabbits immunized with the peptide; B9 hybridoma proliferation, XTT
# T2 sequence (P08505 25-211): T1 sequence (P08505 25-211)
# Experimental: The neutralizing ability of purified IgGs based on serum from rabbits immunized with the peptides mP1, mP2, mP3, mP4, mP5 and mP6 respectively, was tested in a murine IL-6 neutralization test. This test is based on the fact that murine B9 hybridomas proliferate in a dose-dependent manner in response to murine IL-6 (Brakenhoff et al. (1987) J. Immunol. 139:4116-21).
# Plating (D0): seed a flat-bottom 96-well plate, treated for cell culture with 5000 cells per well in 50 μL of neutralization medium. (RPMI 1640 without phenol red, 5% v/v Foetal Calf Serum (FCS), 2 mM L-Glutamine, 100 U/mL Penicillin/Streptomycin, […] of β-Mercaptoethanol)
# In parallel a so-called “pre-incubation” plate is produced with the desired concentration of murine IL-6, samples and commercial anti-mIL-6 antibodies used as positive control, all in a final volume of 100 μL of neutralization medium.
# The pre-incubation plate is left at 37° C. for 2 hours. 50 μL per well is then transferred to the corresponding wells of the plate containing the cells, then the latter is incubated with 5% CO2 at 37° C. for 96 hours.
# Development (D4): Add 50 μL of a solution of XTT (for 2,3-bis-(2-methoxy-4-nitro-5-sulfophenyl)-2H-tetrazolium-5-carboxanilide)—0.5% electron coupling reagent to each well. Leave to incubate at 37° C. for 7 hours. Reading of the optical density on a spectrophotometer set at 450 nm.
# Sequence of hIL-6 (P05231 30-212): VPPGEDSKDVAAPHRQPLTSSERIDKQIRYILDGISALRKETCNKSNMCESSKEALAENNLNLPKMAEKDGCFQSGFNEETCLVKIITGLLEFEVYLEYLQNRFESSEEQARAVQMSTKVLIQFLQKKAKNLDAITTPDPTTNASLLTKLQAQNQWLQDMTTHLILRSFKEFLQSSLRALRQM
substance,measurement,setting,value
"Acetyl+C76MNNDDALAENNLKLPE92C-Y-BDB (Ac-CMNNDDALAENNLKLPECY-{BDB}; disulfide 1-18 (inferred)) [mP2, peptide derived from mIL-6 region 76-92]",development of antibodies against mIL-6 (ELISA),mIL-6,developed antibodies against mIL-6
same,dermal thickening (histological sections),"DBA/2 mice; bleomycin model, versus mice immunized with KLH only, identical with anti mIL-6 receptor group, FIG. 11",lower dermal thickening
same,skin fibrosis (OH-proline content of skin biopsies),DBA/2 mice; injected subcutaneously with NaCl (negative control group),did not develop skin fibrosis
same,skin fibrosis (OH-proline content of skin biopsies),"DBA/2 mice; injected subcutaneously with bleomycin, same efficacy as anti IL-6 receptor antibody group",protected from the development of fibrosis
same,cross-reactivity with the human cytokine (ELISA),hIL-6,apart from the antibodies directed against the peptide mP2
same,histological colitis score,"C57BL/6 mice; D67 colon distal biopsies, compared with control mice treated with PBS or KLH alone, FIG. 3",significantly reduced histological score
same,disease activity index (DAI),"C57BL/6 mice; DSS-treated C57BL/6 mice, 100 μg peptide coupled with KLH, compared with the control groups, FIG. 2",significantly reduced disease activity index
same,reduction of the length of the colon,"C57BL/6 mice; DSS-treated C57BL/6 mice, compared with control mice, FIG. 4",significantly less severe reduction of the colon
same,neutralization of the biological activity of murine IL-6,murine IL-6,neutralize the biological activity of murine IL-6 in a dose-dependent manner
